{"source": "patent US20240391899A1", "about": "“POTENT AND SELECTIVE INHIBITORS OF IRAK4” (Dana-Farber Cancer Institute, Inc., priority 2021, published 2024)", "key": {"IRAK4": {"target": "T1, IRAK4 (Homo sapiens, UniProt Q9NWZ3)", "T1 construct": "purchased ThermoFisher", "T1 sequence (Q9NWZ3 1-460)": "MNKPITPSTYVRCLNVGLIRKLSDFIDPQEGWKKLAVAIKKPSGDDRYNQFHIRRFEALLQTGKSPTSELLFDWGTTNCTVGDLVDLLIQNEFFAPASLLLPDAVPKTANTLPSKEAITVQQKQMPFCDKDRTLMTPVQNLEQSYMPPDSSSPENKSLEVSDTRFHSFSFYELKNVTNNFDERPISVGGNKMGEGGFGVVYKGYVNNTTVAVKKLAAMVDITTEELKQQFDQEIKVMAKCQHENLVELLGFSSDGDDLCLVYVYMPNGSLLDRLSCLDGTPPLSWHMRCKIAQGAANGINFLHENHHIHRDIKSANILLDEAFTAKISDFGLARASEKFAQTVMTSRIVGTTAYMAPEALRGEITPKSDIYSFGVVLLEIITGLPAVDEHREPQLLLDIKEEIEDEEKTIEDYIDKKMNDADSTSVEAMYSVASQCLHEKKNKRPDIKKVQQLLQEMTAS", "assay": "IRAK4 enzymatic assay (Z'-LYTE, ThermoFisher)", "format": "biochemical", "conditions": "60 minutes at room temperature", "protocol": "To measure the IC50 values of compounds herein against IRAK4, a Z′-LYTE assay (ThermoFisher) was used. Briefly, 2.5 μL of different concentrations of the compounds in 1% DMSO were added to 2.4 μL kinase buffer (50 mM HEPES pH 7.5, 0.01% BRIJ-35, 10 mM MgCl2, 1 mM EGTA) in each well of a 384-well plate (Corning Cat. #3676). 5 μL of 2×IRAK4/Ser/Thr 07 mixture (prepared in 50 mM HEPES pH 7.5, 0.01% BRIJ-35, 10 mM MnCl2, 2 mM DTT, and 0.02% NaN3) and 2.5 μL of 4×ATP solution (4×ATP, 50 mM HEPES, pH 7.5, 0.01% BRIJ-35, 10 mM MgCl2, 1 mM EGTA) were added to each well. The plate was shaken for 30 seconds, and then incubated at room temperature for 60 minutes. 5 μL of a 1:100000 dilution of Development Reagent A was added to each well. The plate was shaken for 30 seconds and incubated for 60 minutes at room temperature. The plate was subsequently read on a fluorescence plate reader, and the emissions ratio was calculated to determine the ratio of Ser/Thr 07 phosphorylated by the reaction. Emissions Ratio=Coumarin Emission (443 nm)/Flourescein Emission (520 nm)."}, "IRAK1": {"target": "T2, IRAK1 (Homo sapiens, UniProt P51617)", "T2 construct": "purchased ThermoFisher", "T2 sequence (P51617 whole entry)": "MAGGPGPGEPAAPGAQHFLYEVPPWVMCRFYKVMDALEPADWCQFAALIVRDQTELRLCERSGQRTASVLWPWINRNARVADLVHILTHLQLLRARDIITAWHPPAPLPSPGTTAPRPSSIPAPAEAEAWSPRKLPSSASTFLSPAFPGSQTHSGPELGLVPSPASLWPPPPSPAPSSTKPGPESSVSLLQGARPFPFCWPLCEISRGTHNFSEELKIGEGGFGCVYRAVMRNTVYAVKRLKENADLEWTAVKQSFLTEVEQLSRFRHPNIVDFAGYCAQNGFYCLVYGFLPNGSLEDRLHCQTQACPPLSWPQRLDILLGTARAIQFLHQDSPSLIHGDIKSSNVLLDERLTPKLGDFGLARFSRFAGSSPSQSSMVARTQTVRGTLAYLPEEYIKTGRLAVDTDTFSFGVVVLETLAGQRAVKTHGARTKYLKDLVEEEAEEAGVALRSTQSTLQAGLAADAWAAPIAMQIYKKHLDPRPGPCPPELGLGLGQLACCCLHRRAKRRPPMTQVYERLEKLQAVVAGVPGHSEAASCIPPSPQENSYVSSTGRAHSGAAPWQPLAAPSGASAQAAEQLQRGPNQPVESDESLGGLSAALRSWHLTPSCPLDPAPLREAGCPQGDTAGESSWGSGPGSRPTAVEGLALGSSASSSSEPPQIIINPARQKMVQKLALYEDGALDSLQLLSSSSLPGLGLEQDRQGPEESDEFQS", "assay": "IRAK1 enzymatic assay (Adapta Universal Kinase Assay, ThermoFisher)", "format": "biochemical", "conditions": "60 minutes at room temperature", "protocol": "To measure the IC50 values of the compounds herein against IRAK1, the Adapta Universal Kinase Assay (ThermoFisher) was used. Briefly, 100 nL of different concentrations of the compounds in 100% DMSO were added to each well of a 384-well plate (Corning Cat. #4512). 2.4 μL of 30 mM HEPES, 2.5 μL of 4×ATP solution (in water), and 5 μL of 2×IRAK1/Histone H3 (1-20) peptide mixture (prepared in 50 mM HEPES pH 7.5, 0.01% BRIJ-35, 10 mM MgCl2, 1 mM EGTA) were added to each well. The plate was shaken for 30 seconds and centrifuged for 1 minute at 1000×g. The plate was then incubated at room temperature for 60 minutes. 5 μL of Detection Mix was added to each well. The plate was shaken for 30 seconds and centrifuged for 1 minute at 1000×g. The plate was then incubated at room temperature for 60 minutes. The plate was subsequently read on a fluorescence plate reader, and the emissions ratio was calculated to determine the ratio of ATP to ADP. Emissions Ratio=AF647 Emission (665 nm)/Europium Emission (615 nm)."}}, "data": [{"smiles": "CN1CCC(c2cc(NC(=O)c3cccc(-c4ccn[nH]4)n3)n(-c3ccccn3)n2)CC1", "note": "[Compound 001, N-(3-(1-Methylpiperidin-4-yl)-1-(pyridin-2-yl)-1H-pyrazol-5-yl)-6-(1H-pyrazol-5-yl)picolinamide]", "values": [{"measurement": "IC50", "setting": "IRAK4", "value": 0.004, "unit": "µM"}, {"measurement": "IC50", "setting": "IRAK1", "value": 0.008, "unit": "µM"}]}, {"smiles": "Cc1ccc(-n2nc(C3CCN(C(C)C)CC3)cc2NC(=O)c2cccc(-c3cn[nH]c3)n2)nc1", "note": "[Compound 002, N-(3-(1-isopropylpiperidin-4-yl)-1-(5-methylpyridin-2-yl)-1H-pyrazol-5-yl)-6-(1H-pyrazol-4-yl)picolinamide]", "values": [{"measurement": "IC50", "setting": "IRAK4", "value": 0.003, "unit": "µM"}, {"measurement": "IC50", "setting": "IRAK1", "value": 0.036, "unit": "µM"}]}, {"smiles": "CC(C)N1CCC(c2cc(NC(=O)c3cccc(-c4cn[nH]c4)n3)n(-c3ccccn3)n2)CC1", "note": "[Compound 003, N-(3-(1-isopropylpiperidin-4-yl)-1-(pyridin-2-yl)-1H-pyrazol-5-yl)-6-(1H-pyrazol-4-yl)picolinamide]", "values": [{"measurement": "IC50", "setting": "IRAK4", "value": 0.006, "unit": "µM"}, {"measurement": "IC50", "setting": "IRAK1", "value": 0.066, "unit": "µM"}]}, {"smiles": "Cc1ccc(-n2nc(C3CCN(C(C)C)CC3)cc2NC(=O)c2cccc(-c3cnsc3)n2)nc1", "note": "[Compound 004, N-(3-(1-isopropylpiperidin-4-yl)-1-(5-methylpyridin-2-yl)-1H-pyrazol-5-yl)-6-(isothiazol-4-yl)picolinamide]", "values": [{"measurement": "IC50", "setting": "IRAK4", "value": 0.024, "unit": "µM"}, {"measurement": "IC50", "setting": "IRAK1", "value": 0.372, "unit": "µM"}]}, {"smiles": "CC(C)N1CCC(c2cc(NC(=O)c3cccc(-c4cnsc4)n3)n(-c3ccccn3)n2)CC1", "note": "[Compound 005, N-(3-(1-isopropylpiperidin-4-yl)-1-(pyridin-2-yl)-1H-pyrazol-5-yl)-6-(isothiazol-4-yl)picolinamide]", "values": [{"measurement": "IC50", "setting": "IRAK4", "value": 0.037, "unit": "µM"}, {"measurement": "IC50", "setting": "IRAK1", "value": 0.183, "unit": "µM"}]}, {"smiles": "Cc1ccc(-n2nc(C3CCN(C(C)C)CC3)cc2NC(=O)c2cccc(-c3cnoc3)n2)nc1", "note": "[Compound 006, N-(3-(1-isopropylpiperidin-4-yl)-1-(5-methylpyridin-2-yl)-1H-pyrazol-5-yl)-6-(isoxazol-4-yl)picolinamide]", "values": [{"measurement": "IC50", "setting": "IRAK4", "value": 0.006, "unit": "µM"}, {"measurement": "IC50", "setting": "IRAK1", "value": 0.015, "unit": "µM"}]}, {"smiles": "CC(C)N1CCC(c2cc(NC(=O)c3cccc(-c4cnoc4)n3)n(-c3ccccn3)n2)CC1", "note": "[Compound 007, N-(3-(1-isopropylpiperidin-4-yl)-1-(pyridin-2-yl)-1H-pyrazol-5-yl)-6-(isoxazol-4-yl)picolinamide]", "values": [{"measurement": "IC50", "setting": "IRAK4", "value": 0.031, "unit": "µM"}, {"measurement": "IC50", "setting": "IRAK1", "value": 0.317, "unit": "µM"}]}, {"smiles": "Cc1ccc(-n2nc(C3CCN(C4COC4)CC3)cc2NC(=O)c2ccccn2)nc1", "note": "[Compound 008, N-(1-(5-methylpyridin-2-yl)-3-(1-(oxetan-3-yl)piperidin-4-yl)-1H-pyrazol-5-yl)picolinamide]", "values": [{"measurement": "IC50", "setting": "IRAK4", "value": 0.148, "unit": "µM"}, {"measurement": "IC50", "setting": "IRAK1", "value": 1.35, "unit": "µM"}]}, {"smiles": "Cc1ccc(-n2nc(C3CCN(C(C)C)CC3)cc2NC(=O)c2ccccn2)nc1", "note": "[Compound 009, N-(3-(1-isopropylpiperidin-4-yl)-1-(5-methylpyridin-2-yl)-1H-pyrazol-5-yl)picolinamide]", "values": [{"measurement": "IC50", "setting": "IRAK4", "value": 0.055, "unit": "µM"}, {"measurement": "IC50", "setting": "IRAK1", "value": 1.65, "unit": "µM"}]}, {"smiles": "CC(C)N1CCC(c2cc(NC(=O)c3ccccn3)n(-c3ccccn3)n2)CC1", "note": "[Compound 010, N-(3-(1-isopropylpiperidin-4-yl)-1-(pyridin-2-yl)-1H-pyrazol-5-yl)picolinamide]", "values": [{"measurement": "IC50", "setting": "IRAK4", "value": 0.043, "unit": "µM"}, {"measurement": "IC50", "setting": "IRAK1", "value": 1.1, "unit": "µM"}]}, {"smiles": "Cc1ccc(-n2nc(C3CCN(C)CC3)cc2NC(=O)c2ccccn2)nc1", "note": "[Compound 011, N-(3-(1-methylpiperidin-4-yl)-1-(5-methylpyridin-2-yl)-1H-pyrazol-5-yl)picolinamide]", "values": [{"measurement": "IC50", "setting": "IRAK4", "value": 0.17, "unit": "µM"}, {"measurement": "IC50", "setting": "IRAK1", "value": 0.835, "unit": "µM"}]}, {"smiles": "Cc1ccc(-n2nc(C3CCN(C(C)C)CC3)cc2NC(=O)c2cccc(-c3ccn[nH]3)n2)nc1", "note": "[Compound 012, N-(3-(1-isopropylpiperidin-4-yl)-1-(5-methylpyridin-2-yl)-1H-pyrazol-5-yl)-6-(1H-pyrazol-5-yl)picolinamide]", "values": [{"measurement": "IC50", "setting": "IRAK4", "value": 0.003, "unit": "µM"}, {"measurement": "IC50", "setting": "IRAK1", "value": 0.007, "unit": "µM"}]}, {"smiles": "Cc1ccc(-n2nc(C3CCN(C(C)C)CC3)cc2NC(=O)c2cccc(-c3cnn(CC(=O)N(C)C)c3)n2)nc1", "note": "[Compound 013, 6-(1-(2-(dimethylamino)-2-oxoethyl)-1H-pyrazol-4-yl)-N-(3-(1-isopropylpiperidin-4-yl)-1-(5-methylpyridin-2-yl)-1H-pyrazol-5-yl)picolinamide]", "values": [{"measurement": "IC50", "setting": "IRAK4", "value": 0.045, "unit": "µM"}, {"measurement": "IC50", "setting": "IRAK1", "value": 0.718, "unit": "µM"}]}, {"smiles": "CNC(=O)Cn1cc(-c2cccc(C(=O)Nc3cc(C4CCN(C(C)C)CC4)nn3-c3ccc(C)cn3)n2)cn1", "note": "[Compound 014, N-(3-(1-isopropylpiperidin-4-yl)-1-(5-methylpyridin-2-yl)-1H-pyrazol-5-yl)-6-(1-(2-(methylamino)-2-oxoethyl)-1H-pyrazol-4-yl)picolinamide]", "values": [{"measurement": "IC50", "setting": "IRAK4", "value": 0.036, "unit": "µM"}, {"measurement": "IC50", "setting": "IRAK1", "value": 0.656, "unit": "µM"}]}, {"smiles": "CC(C)N1CCC(c2cc(NC(=O)c3cccc(-c4cnn(CC(N)=O)c4)n3)n(-c3ccccn3)n2)CC1", "note": "[Compound 016, 6-(1-(2-amino-2-oxoethyl)-1H-pyrazol-4-yl)-N-(3-(1-isopropylpiperidin-4-yl)-1-(pyridin-2-yl)-1H-pyrazol-5-yl)picolinamide]", "values": [{"measurement": "IC50", "setting": "IRAK4", "value": 0.039, "unit": "µM"}, {"measurement": "IC50", "setting": "IRAK1", "value": 0.828, "unit": "µM"}]}, {"smiles": "Cc1ccc(-n2nc(C3CCN(C(C)C)CC3)cc2NC(=O)c2cccc(C#N)n2)nc1", "note": "[Compound 017, 6-cyano-N-(3-(1-isopropylpiperidin-4-yl)-1-(5-methylpyridin-2-yl)-1H-pyrazol-5-yl)picolinamide]", "values": [{"measurement": "IC50", "setting": "IRAK4", "value": 0.009, "unit": "µM"}, {"measurement": "IC50", "setting": "IRAK1", "value": 0.09, "unit": "µM"}]}, {"smiles": "CC(C)N1CCC(c2cc(NC(=O)c3cccc(/C=C/C(N)=O)n3)n(-c3ccccn3)n2)CC1", "note": "[Compound 018, (E)-6-(3-amino-3-oxoprop-1-en-1-yl)-N-(3-(1-isopropylpiperidin-4-yl)-1-(pyridin-2-yl)-1H-pyrazol-5-yl)picolinamide]", "values": [{"measurement": "IC50", "setting": "IRAK4", "value": 0.024, "unit": "µM"}, {"measurement": "IC50", "setting": "IRAK1", "value": 0.234, "unit": "µM"}]}, {"smiles": "CC(C)N1CCC(c2cc(NC(=O)c3cccc(CCC(N)=O)n3)n(-c3ccccn3)n2)CC1", "note": "[Compound 019, 6-(3-amino-3-oxopropyl)-N-(3-(1-isopropylpiperidin-4-yl)-1-(pyridin-2-yl)-1H-pyrazol-5-yl)picolinamide]", "values": [{"measurement": "IC50", "setting": "IRAK4", "value": 0.047, "unit": "µM"}, {"measurement": "IC50", "setting": "IRAK1", "value": 0.242, "unit": "µM"}]}, {"smiles": "CC(C)N1CCC(c2cc(NC(=O)c3cccc(N4CCNCC4)n3)n(-c3ccccn3)n2)CC1", "note": "[Compound 020, N-(3-(1-isopropylpiperidin-4-yl)-1-(pyridin-2-yl)-1H-pyrazol-5-yl)-6-(piperazin-1-yl)picolinamide]", "values": [{"measurement": "IC50", "setting": "IRAK4", "value": 0.561, "unit": "µM"}, {"measurement": "IC50", "setting": "IRAK1", "value": 10, "unit": "µM"}]}]}
